Experimental data from ChEMBL document CHEMBL4837238, “Feature-Based Molecular Networking for the Targeted Identification of Gq-Inhibiting FR900359 Derivatives” (J Nat Prod, 2021).
Starred links: 1 amine or outer side, 2 acyl side, 3 side chain; linkers in the order of their positions; H or OH if unused. Positions of bridges follow the written chain, without caps; N, C: chain ends. Non-standard residues stand in square brackets, D forms with d. Residues, ends and D or L forms follow the SMILES beside them. *: point of attachment. Leu(3R-OH,Nα-propionyl) = CCC(=O)N[C@H](C(=O)*)[C@H](O)C(C)C; X1 = CC(C)[C@@H](O[*:3])[C@H](N[*:1])C(=O)[*:2]; NMeT = CN[C@H](C(=O)O)[C@@H](C)O; dPhLac = O=C(O)[C@H](O)Cc1ccccc1; NMeA = CN[C@@H](C)C(=O)O; NMeDha = C=C(NC)C(=O)O

Columns and labels:
[1] = Displacement of [3H]-PSB15900 from human platelet membrane Gq incubated for 90 mins by scintillation counter method; type: cell membranes
[2] = molecular target: T1, Guanine nucleotide-binding protein G(q) subunit alpha (Homo sapiens, UniProt P50148); assay: Inhibition of wild type GNAQ (unknown origin) expressed in CRISPR/Cas9 engineered HEK293 cells; type: cell-based
T1 sequence (P50148 whole entry): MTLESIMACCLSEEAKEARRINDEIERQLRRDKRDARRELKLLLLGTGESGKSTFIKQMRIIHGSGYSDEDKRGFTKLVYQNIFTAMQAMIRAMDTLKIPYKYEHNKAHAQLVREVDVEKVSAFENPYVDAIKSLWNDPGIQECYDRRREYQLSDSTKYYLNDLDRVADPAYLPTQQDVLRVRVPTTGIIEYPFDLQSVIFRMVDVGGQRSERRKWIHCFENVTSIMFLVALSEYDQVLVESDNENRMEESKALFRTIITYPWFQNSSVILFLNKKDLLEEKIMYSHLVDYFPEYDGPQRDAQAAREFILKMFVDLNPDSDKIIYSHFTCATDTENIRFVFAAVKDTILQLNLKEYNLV

| SMILES | pKi [1] | IC50 [2] [nM] |
| --- | --- | --- |
| C=C1C(=O)N[C@@H](C)C(=O)N(C)[C@@H](C)C(=O)N[C@@H]([C@H](OC(=O)[C@@H](NC(=O)CC)[C@H](O)C(C)C)C(C)C)C(=O)N(C)[C@@H]([C@@H](C)OC)C(=O)O[C@H](C(C)C)[C@H](NC(C)=O)C(=O)O[C@H](Cc2ccccc2)C(=O)N1C (Ac-[X1][dPhLac][NMeDha]A[NMeA][X1](Leu(3R-OH,Nα-propionyl))[NMeT](Me); ester 1-C) | 8.66 | – |
| C=C1C(=O)N[C@@H](C)C(=O)N(C)[C@@H](C)C(=O)N[C@@H]([C@H](OC(=O)[C@@H](NC(C)=O)C(O)C(C)C)C(C)C)C(=O)N(C)/C(=C\C)C(=O)O[C@H](C(C)C)[C@H](NC(C)=O)C(=O)O[C@H](Cc2ccccc2)C(=O)N1C (single isomer, unassigned) | 7.5 | 2750 |
